Data as given in US8030443B2, “Squamous cell carcinoma antigen-derived peptide binding to HLA-A24 molecule” (Kurume University, priority 2005, dated 2011).

Tested on: peptide-specific IgG in sera of cancer patients and healthy donors
Assay: Measurement of anti-peptide IgG in plasma by LUMINEX multiplexed flow cytometric assay
Format: binding, human
Details: for Total: healthy donors with significant peptide-reactive IgG / donors tested: 10 healthy donors; for Total: healthy donors with significant peptide-reactive IgG / donors tested / Total: cancer patients with significant peptide-reactive IgG / patients tested: significant when fluorescence intensity exceeded 100 at 1/100 dilution; for Total: cancer patients with significant peptide-reactive IgG / patients tested: 71 cancer patients
How it was run: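 Plasma diluted 1/100 incubated with peptide-coupled colour-coded beads 2 h at RT, then biotinylated goat anti-human IgG (γ-chain) 1 h and streptavidin-PE 30 min; fluorescence read by multiplexed flow cytometry, >100 counted significant. Specificity checked by three rounds of absorption on corresponding versus irrelevant SCCA peptide.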

[1] = serum of Breast Ca. patient #36, 1:100 dilution
[2] = serum of Breast Ca. patient #37, 1:100 dilution
[3] = serum of Breast Ca. patient #38, 1:100 dilution
[4] = serum of Breast Ca. patient #39, 1:100 dilution
[5] = serum of Breast Ca. patient #40, 1:100 dilution
[6] = serum of Breast Ca. patient #41, 1:100 dilution
[7] = serum of Breast Ca. patient #42, 1:100 dilution
[8] = serum of Breast Ca. patient #43, 1:100 dilution
[9] = serum of Breast Ca. patient #44, 1:100 dilution
[10] = serum of Breast Ca. patient #45, 1:100 dilution
[11] = serum of Colon Ca. patient #66, 1:100 dilution
[12] = serum of Colon Ca. patient #67, 1:100 dilution
[13] = serum of Colon Ca. patient #68, 1:100 dilution
[14] = serum of Colon Ca. patient #69, 1:100 dilution
[15] = serum of Colon Ca. patient #70, 1:100 dilution
[16] = serum of Colon Ca. patient #71, 1:100 dilution
[17] = serum of Gastric Ca. patient #56, 1:100 dilution
[18] = serum of Gastric Ca. patient #57, 1:100 dilution
[19] = serum of Gastric Ca. patient #58, 1:100 dilution
[20] = serum of Gastric Ca. patient #59, 1:100 dilution
[21] = serum of Gastric Ca. patient #60, 1:100 dilution
[22] = serum of Gastric Ca. patient #61, 1:100 dilution
[23] = serum of Gastric Ca. patient #62, 1:100 dilution
[24] = serum of Gastric Ca. patient #63, 1:100 dilution
[25] = serum of Gastric Ca. patient #64, 1:100 dilution
[26] = serum of Gastric Ca. patient #65, 1:100 dilution
[27] = serum of Healthy Donor #1, 1:100 dilution
[28] = serum of Healthy Donor #2, 1:100 dilution
[29] = serum of Healthy Donor #3, 1:100 dilution
[30] = serum of Healthy Donor #4, 1:100 dilution
[31] = serum of Healthy Donor #5, 1:100 dilution
[32] = serum of Healthy Donor #6, 1:100 dilution
[33] = serum of Healthy Donor #7, 1:100 dilution
[34] = serum of Healthy Donor #8, 1:100 dilution
[35] = serum of Healthy Donor #9, 1:100 dilution
[36] = serum of Healthy Donor #10, 1:100 dilution
[37] = serum of Pancreas Ca. patient #46, 1:100 dilution
[38] = serum of Pancreas Ca. patient #47, 1:100 dilution
[39] = serum of Pancreas Ca. patient #48, 1:100 dilution
[40] = serum of Pancreas Ca. patient #49, 1:100 dilution
[41] = serum of Pancreas Ca. patient #50, 1:100 dilution
[42] = serum of Pancreas Ca. patient #51, 1:100 dilution
[43] = serum of Pancreas Ca. patient #52, 1:100 dilution
[44] = serum of Pancreas Ca. patient #53, 1:100 dilution
[45] = serum of Pancreas Ca. patient #54, 1:100 dilution
[46] = serum of Pancreas Ca. patient #55, 1:100 dilution
[47] = serum of Uterine cervical Ca. patient #1, 1:100 dilution
[48] = serum of Uterine cervical Ca. patient #2, 1:100 dilution
[49] = serum of Uterine cervical Ca. patient #3, 1:100 dilution
[50] = serum of Uterine cervical Ca. patient #4, 1:100 dilution
[51] = serum of Uterine cervical Ca. patient #5, 1:100 dilution
[52] = serum of Uterine cervical Ca. patient #6, 1:100 dilution
[53] = serum of Uterine cervical Ca. patient #7, 1:100 dilution
[54] = serum of Uterine cervical Ca. patient #8, 1:100 dilution
[55] = serum of Uterine cervical Ca. patient #9, 1:100 dilution
[56] = serum of Uterine cervical Ca. patient #10, 1:100 dilution
[57] = serum of Uterine cervical Ca. patient #11, 1:100 dilution
[58] = serum of Uterine cervical Ca. patient #12, 1:100 dilution
[59] = serum of Uterine cervical Ca. patient #13, 1:100 dilution
[60] = serum of Uterine cervical Ca. patient #14, 1:100 dilution
[61] = serum of Uterine cervical Ca. patient #15, 1:100 dilution
[62] = serum of Uterine cervical Ca. patient #16, 1:100 dilution
[63] = serum of Uterine cervical Ca. patient #17, 1:100 dilution
[64] = serum of Uterine cervical Ca. patient #18, 1:100 dilution
[65] = serum of Uterine cervical Ca. patient #19, 1:100 dilution
[66] = serum of Uterine cervical Ca. patient #20, 1:100 dilution
[67] = serum of Uterine cervical Ca. patient #21, 1:100 dilution
[68] = serum of Uterine cervical Ca. patient #22, 1:100 dilution
[69] = serum of Uterine cervical Ca. patient #23, 1:100 dilution
[70] = serum of Uterine cervical Ca. patient #24, 1:100 dilution
[71] = serum of Uterine cervical Ca. patient #25, 1:100 dilution
[72] = serum of Uterine cervical Ca. patient #26, 1:100 dilution
[73] = serum of Uterine cervical Ca. patient #27, 1:100 dilution
[74] = serum of Uterine cervical Ca. patient #28, 1:100 dilution
[75] = serum of Uterine cervical Ca. patient #29, 1:100 dilution
[76] = serum of Uterine cervical Ca. patient #30, 1:100 dilution
[77] = serum of Uterine cervical Ca. patient #31, 1:100 dilution
[78] = serum of Uterine cervical Ca. patient #32, 1:100 dilution
[79] = serum of Uterine cervical Ca. patient #33, 1:100 dilution
[80] = serum of Uterine cervical Ca. patient #34, 1:100 dilution
[81] = serum of Uterine cervical Ca. patient #35, 1:100 dilution

In the case of “KFMFDLFQQF (SCCA 10-19 peptide) [SCCA-derived peptide, position 10-19]”, the “Total: healthy donors with significant peptide-reactive IgG / donors tested” value was 1/10, the “Total: cancer patients with significant peptide-reactive IgG / patients tested” value was 12/71 and the Fluorescence intesity [1] was 66. It also gave a Fluorescence intesity [2] of 0, a Fluorescence intesity [3] of 27 and a Fluorescence intesity [4] of 38. For the same sequence, the Fluorescence intesity [5] was 0, the Fluorescence intesity [6] was 201 and the Fluorescence intesity [7] was 0. It also gave a Fluorescence intesity [8] of 44, a Fluorescence intesity [9] of 18 and a Fluorescence intesity [10] of 55. It also gave a Fluorescence intesity [11] of 5, a Fluorescence intesity [12] of 79 and a Fluorescence intesity [13] of 0. For the same sequence, the Fluorescence intesity [14] was 2, the Fluorescence intesity [15] was 17 and the Fluorescence intesity [16] was 6. The Fluorescence intesity [17] was 38, the Fluorescence intesity [18] was 11 and the Fluorescence intesity [19] was 0. It also gave a Fluorescence intesity [20] of 177, a Fluorescence intesity [21] of 4 and a Fluorescence intesity [22] of 81. The Fluorescence intesity [23] was 0, the Fluorescence intesity [24] was 0 and the Fluorescence intesity [25] was 9. The Fluorescence intesity [26] was 0, the Fluorescence intesity [27] was 0 and the Fluorescence intesity [28] was 68. It also gave a Fluorescence intesity [29] of 0, a Fluorescence intesity [30] of 0 and a Fluorescence intesity [31] of 8. For the same sequence, the Fluorescence intesity [32] was 0, the Fluorescence intesity [33] was 0 and the Fluorescence intesity [34] was 345. The Fluorescence intesity [35] was 34, the Fluorescence intesity [36] was 0 and the Fluorescence intesity [37] was 0. It also gave a Fluorescence intesity [38] of 12, a Fluorescence intesity [39] of 206 and a Fluorescence intesity [40] of 0. For the same sequence, the Fluorescence intesity [41] was 311, the Fluorescence intesity [42] was 0 and the Fluorescence intesity [43] was 172. It also gave a Fluorescence intesity [44] of 0, a Fluorescence intesity [45] of 11 and a Fluorescence intesity [46] of 0. It also gave a Fluorescence intesity [47] of 25, a Fluorescence intesity [48] of 21 and a Fluorescence intesity [49] of 11. For the same sequence, the Fluorescence intesity [50] was 5, the Fluorescence intesity [51] was 14 and the Fluorescence intesity [52] was 786. The Fluorescence intesity [53] was 14, the Fluorescence intesity [54] was 38 and the Fluorescence intesity [55] was 76. For the same sequence, the Fluorescence intesity [56] was 16, the Fluorescence intesity [57] was 21 and the Fluorescence intesity [58] was 41. It also gave a Fluorescence intesity [59] of 22, a Fluorescence intesity [60] of 22 and a Fluorescence intesity [61] of 154. For the same sequence, the Fluorescence intesity [62] was 225, the Fluorescence intesity [63] was 50 and the Fluorescence intesity [64] was 45. It also gave a Fluorescence intesity [65] of 67, a Fluorescence intesity [66] of 107 and a Fluorescence intesity [67] of 22. The Fluorescence intesity [68] was 19, the Fluorescence intesity [69] was 78 and the Fluorescence intesity [70] was 2277. The Fluorescence intesity [71] was 19, the Fluorescence intesity [72] was 88 and the Fluorescence intesity [73] was 33. For the same sequence, the Fluorescence intesity [74] was 228, the Fluorescence intesity [75] was 15 and the Fluorescence intesity [76] was 44. The Fluorescence intesity [77] was 107, the Fluorescence intesity [78] was 21 and the Fluorescence intesity [79] was 92. The Fluorescence intesity [80] was 17 and the Fluorescence intesity [81] was 17.

For “LFGEKTYLFL (SCCA 107-116 peptide) [SCCA-derived peptide, position 107-116]”, the “Total: healthy donors with significant peptide-reactive IgG / donors tested” value was 5/10, the “Total: cancer patients with significant peptide-reactive IgG / patients tested” value was 27/71 and the “Specificity of IgG reactive to the peptide” value (absorption assay: corresponding vs irrelevant SCCA peptide-coated wells (FIG. 3)) was “confirmed by absorption assay”. For the same sequence, the Fluorescence intesity [1] was 211, the Fluorescence intesity [2] was 242 and the Fluorescence intesity [3] was 146. It also gave a Fluorescence intesity [4] of 149, a Fluorescence intesity [5] of 146 and a Fluorescence intesity [6] of 269. The Fluorescence intesity [7] was 219, the Fluorescence intesity [8] was 136 and the Fluorescence intesity [9] was 146. The Fluorescence intesity [10] was 272, the Fluorescence intesity [11] was 40 and the Fluorescence intesity [12] was 49. It also gave a Fluorescence intesity [13] of 0, a Fluorescence intesity [14] of 20 and a Fluorescence intesity [15] of 91. It also gave a Fluorescence intesity [16] of 70, a Fluorescence intesity [17] of 38 and a Fluorescence intesity [18] of 114. For the same sequence, the Fluorescence intesity [19] was 133, the Fluorescence intesity [20] was 237 and the Fluorescence intesity [21] was 24. It also gave a Fluorescence intesity [22] of 282, a Fluorescence intesity [23] of 37 and a Fluorescence intesity [24] of 29. It also gave a Fluorescence intesity [25] of 67, a Fluorescence intesity [26] of 72 and a Fluorescence intesity [27] of 53. It also gave a Fluorescence intesity [28] of 297, a Fluorescence intesity [29] of 67 and a Fluorescence intesity [30] of 0. It also gave a Fluorescence intesity [31] of 331, a Fluorescence intesity [32] of 0 and a Fluorescence intesity [33] of 0. For the same sequence, the Fluorescence intesity [34] was 454, the Fluorescence intesity [35] was 246 and the Fluorescence intesity [36] was 106. It also gave a Fluorescence intesity [37] of 0, a Fluorescence intesity [38] of 115 and a Fluorescence intesity [39] of 431. For the same sequence, the Fluorescence intesity [40] was 30, the Fluorescence intesity [41] was 29 and the Fluorescence intesity [42] was 2. It also gave a Fluorescence intesity [43] of 286, a Fluorescence intesity [44] of 43 and a Fluorescence intesity [45] of 126. The Fluorescence intesity [46] was 0, the Fluorescence intesity [47] was 20 and the Fluorescence intesity [48] was 106. For the same sequence, the Fluorescence intesity [49] was 51, the Fluorescence intesity [50] was 109 and the Fluorescence intesity [51] was 55. The Fluorescence intesity [52] was 925, the Fluorescence intesity [53] was 15 and the Fluorescence intesity [54] was 30. The Fluorescence intesity [55] was 84, the Fluorescence intesity [56] was 14 and the Fluorescence intesity [57] was 25. For the same sequence, the Fluorescence intesity [58] was 41, the Fluorescence intesity [59] was 33 and the Fluorescence intesity [60] was 22. It also gave a Fluorescence intesity [61] of 134, a Fluorescence intesity [62] of 193 and a Fluorescence intesity [63] of 65. The Fluorescence intesity [64] was 62, the Fluorescence intesity [65] was 70 and the Fluorescence intesity [66] was 90. It also gave a Fluorescence intesity [67] of 25, a Fluorescence intesity [68] of 19 and a Fluorescence intesity [69] of 75. For the same sequence, the Fluorescence intesity [70] was 1457, the Fluorescence intesity [71] was 16 and the Fluorescence intesity [72] was 147. For the same sequence, the Fluorescence intesity [73] was 39, the Fluorescence intesity [74] was 196 and the Fluorescence intesity [75] was 19. The Fluorescence intesity [76] was 41, the Fluorescence intesity [77] was 108 and the Fluorescence intesity [78] was 19. The Fluorescence intesity [79] was 170, the Fluorescence intesity [80] was 16 and the Fluorescence intesity [81] was 20.
